# Where a SMILES comes first, the peptide text is derived from it. The star is where a group is joined. Cbz = O=C(OCc1ccccc1)*; CH2F = FC*
# How the values were obtained:
# [1] = test system: obinutuzumab-directed cell death-tolerant clones 1A2, 1D2, 3A4 (derived from SU-DHL-4)
# Protocol: The human germinal center B-cell-like diffuse large B-cell lymphoma cell line SU-DHL-4 was treated with 100 μg/mL of N-ethyl-N-nitrosourea for 24 hours to randomly introduce gene mutations. Thereafter, obinutuzumab was added to 200 μg/mL, and culturing was carried out at 37° C. in the presence of 5% CO2 for three weeks.
# (§1) After four days of culturing at 37° C. in the presence of 5% CO2, the number of viable cells was measured using CellTiter-Glo 3D Cell Viability Assay (Promega). […] The effects of the combined use were assessed by numerical values obtained as follows: login (proportion of cell proliferation when both agents were added)—log10 (proportion of cell proliferation when obinutuzumab was added alone)—log10 (proportion of cell proliferation when the anti-cancer agent was added alone). Here, for the combined use, a numerical value of less than 0 means a supra-additive effect, 0 means an additive effect, and greater than 0 means a sub-additive effect (J Biopharm Stat. 2012; 22(3): 535-543).
# [2] = test system: obinutuzumab-directed cell death-tolerant clone 1A2; details: four days; for effect of combined use with obinutuzumab (Bliss independence): log10(both agents) - log10(obinutuzumab alone) - log10(anti-cancer agent alone): obinutuzumab 1 μg/mL + 4-hydroperoxycyclophosphamide 100 nM, doxorubicin 10 nM, vincristine 1 nM or prednisolone 1 μM, <0 supra-additive, 0 additive, >0 sub-additive
# Protocol: as §1
# The obinutuzumab-directed cell death-tolerant clone 1A2 was seeded at 1×10^4 cells per well in 96-well plates, and obinutuzumab (0.00015-10 μg/mL) and prednisolone (0.2, 1 μM) were added. After four days of culturing at 37° C. in the presence of 5% CO2, the number of viable cells was measured using CellTiter-Glo 3D Cell Viability Assay (Promega).
# (§2) After four days of culturing at 37° C. in the presence of 5% CO2, the number of viable cells was measured using CellTiter-Glo 3D Cell Viability Assay (Promega).
# as §2
# [3] = test system: obinutuzumab-directed cell death-tolerant clone 1D2; test: combined-use cell proliferation test (CellTiter-Glo 3D), clone 1D2; type: cell-based, human; details: obinutuzumab 1 μg/mL + 4-hydroperoxycyclophosphamide 100 nM, doxorubicin 10 nM, vincristine 1 nM or prednisolone 1 μM, four days, <0 supra-additive, 0 additive, >0 sub-additive
# Protocol: as §1
# [4] = test system: obinutuzumab-directed cell death-tolerant clone 3A4; details: obinutuzumab 1 μg/mL + 4-hydroperoxycyclophosphamide 100 nM, doxorubicin 10 nM, vincristine 1 nM or prednisolone 1 μM, four days, <0 supra-additive, 0 additive, >0 sub-additive
# Protocol: as §1
# [5] = test system: obinutuzumab-directed cell death-tolerant clone 1A2; type: cell-based; details: Z-VAD-FMK 40 μM added to obinutuzumab 1 μg/mL + doxorubicin 10 nM, 72 hours, FIG. 7
# Protocol: […] After 72 hours of culturing at 37° C. in the presence of 5% CO2, cells were stained with APO-BrdU TUNEL Assay Kit (Thermo Fisher).
# After 72 hours of culturing at 37° C. in the presence of 5% CO2, cells were stained with APO-BrdU TUNEL Assay Kit (Thermo Fisher).
# [6] = test system: RL parent cell line and ADCC-tolerant cell lines RL-E300-1, RL-E300-2, RL-E300-8, RL-E300-22; test: ADCC sensitivity (calcein release, CD16(158V)/NK-92 effector cells); type: cell-based, human; details: ET ratio 1:1
# Protocol: Obinutuzumab was added at a concentration of 0.0001-100 ng/mL. CD16(158V)/NK-92 cells were added as effector cells to achieve an ET ratio of 1:1 and the cells were incubated at 37° C. for four hours. In addition, for Maximum Lysis, 1% Triton X-100 was added. After the plates were centrifuged and the supernatants were collected, calcein fluorescence was measured using a plate reader. ADCC sensitivity was assessed with the expression (measurement−background)/(Maximum Lysis−background)×100 (%).
# The parent RL cell line and the tolerant cell lines were pre-cultured, with prednisolone (10 μM) added, at 37° C. for 72 hours. […] Obinutuzumab was added at a concentration of 1 ng/mL. CD16(158V)/NK-92 cells were added thereto as effector cells to achieve an ET ratio of 1:1, and the cells were incubated at 37° C. for four hours. In addition, for Maximum Lysis, 1% Triton X-100 was added. After the plates were centrifuged and the supernatants were collected, calcein fluorescence was measured using a plate reader. ADCC sensitivity was assessed with the expression (measurement−background)/(Maximum Lysis−background)×100 (%).
# [7] = test system: CD20 on RL parent and ADCC-tolerant cell lines; test: CD20 expression by FACS; type: cell-based, human; details: prednisolone 10 μM, 72 hours; parent RL cell line and tolerant cell lines; FIG. 10
# Protocol: The parent RL cell line and the tolerant cell lines were seeded at 4×10^5 cells per plate, prednisolone (10 μM) was added, and the cells were cultured at 37° C. for 72 hours. The cells were collected and stained with a control IgG antibody or an anti-CD20 antibody (BD Biosciences), and analysis of CD20 expression was carried out using FACS Fortessa (Becton Dickinson).
# SU-DHL-4 = test: four-day cell proliferation test, parent cell line; type: cell-based, human; details: SU-DHL-4, four-day cell proliferation test
compound,measurement,setting,value
O=P1(N(CCCl)CCCl)NC(OO)CCO1 (centres unmarked) [4-hydroperoxycyclophosphamide],"effect of combined use with obinutuzumab, in words","[1]; all tolerant clones, combined with obinutuzumab 1 μg/mL, four days",approximately additive effects
same,effect of combined use with obinutuzumab (Bliss independence): log10(both agents) - log10(obinutuzumab alone) - log10(anti-cancer agent alone),[2],−0.03
same,effect of combined use with obinutuzumab (Bliss independence): log10(both agents) - log10(obinutuzumab alone) - log10(anti-cancer agent alone),[3],0.02
same,effect of combined use with obinutuzumab (Bliss independence): log10(both agents) - log10(obinutuzumab alone) - log10(anti-cancer agent alone),[4],0.00
COC(=O)C[C@H](NC(=O)[C@H](C)NC(=O)[C@@H](NC(=O)OCc1ccccc1)C(C)C)C(=O)CF [Z-VAD-FMK] (Cbz-Val-Ala-Asp(OMe)-CH2F),cell proliferation ratio with pan caspase inhibitor,"[2]; Z-VAD-FMK 40 μM added to obinutuzumab 0.1, 1 μg/mL + doxorubicin 10 nM, FIG. 8",suppressed the doxorubicin-enhanced inhibitory activity of obinutuzumab on cell proliferation
same,"DNA fragmentation (TUNEL) induced by obinutuzumab and doxorubicin, with pan caspase inhibitor",[5],suppressed
C[C@]12C=CC(=O)C=C1CC[C@@H]1[C@@H]2[C@@H](O)C[C@@]2(C)[C@H]1CC[C@]2(O)C(=O)CO [prednisolone],effect of combined use with obinutuzumab (Bliss independence): log10(both agents) - log10(obinutuzumab alone) - log10(anti-cancer agent alone),[3],−0.10
same,ADCC sensitivity after prednisolone pre-treatment,"[6]; prednisolone 10 μM 72 hours pre-culture, then obinutuzumab 1 ng/mL, parent and tolerant cell lines, FIG. 11",enhances ADCC sensitivity
same,CD20 expression,[7],enhances CD20 expression
CC[C@]1(O)C[C@H]2CN(CCc3c([nH]c4ccccc34)[C@@](C(=O)OC)(c3cc4c(cc3OC)N(C=O)[C@H]3[C@@](O)(C(=O)OC)[C@H](OC(C)=O)[C@]5(CC)C=CCN6CC[C@]43[C@@H]65)C2)C1 [vincristine],effect of combined use with obinutuzumab (Bliss independence): log10(both agents) - log10(obinutuzumab alone) - log10(anti-cancer agent alone),[2],−0.35
same,effect of combined use with obinutuzumab (Bliss independence): log10(both agents) - log10(obinutuzumab alone) - log10(anti-cancer agent alone),[3],−0.10
"obinutuzumab: glycoengineered, genetically recombinant humanized anti-CD20 monoclonal antibody, type II anti-CD20 antibody",obinutuzumab concentration for 50% cell proliferation inhibition,SU-DHL-4,0.037 µg/mL
same,obinutuzumab concentration for 50% cell proliferation inhibition,[1],at least 200 μg/mL
same,ADCC sensitivity of ADCC-tolerant cell lines compared with the parent cell line,"[6]; obinutuzumab 0.0001-100 ng/mL, four hours, FIG. 9",significant reduction in ADCC sensitivity

# From patent US20240050562A1, “INHIBITOR OF CELL PROLIFERATION IN OBINUTUZUMAB RESISTANT CD20-POSITIVE CANCER, AND MEDICINAL COMPOSITION, MEDICINE, PRODUCTION, METHOD FOR INHIBITING CELL PROLIFERATION, THERAPEUTIC METHOD, TYPE II ANTI-CD20 ANTIBODY, COMPOUNDS, COMBINATION OF SAME, ENHANCER AND INDUCER, EACH RELATING THERETO” (Chugai Seiyaku Kabushiki Kaisha, priority 2019, published 2024)
